Reference: PubChem BioAssay (NCI)
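Assay format: 96-well plates, 48-hour exposure. At the TGI there is no net growth.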

Key:
Assay in all cases: NCI-60 cell line screen, 48 h
HOP-92 NSCLC = system: HOP-92 NSCLC
A498 renal = system: A498 renal
UO-31 renal = system: UO-31 renal
MDA-N = system: MDA-N
RXF 393 renal = system: RXF 393 renal
MALME-3M melanoma = system: MALME-3M melanoma
NCI-H522 lung = system: NCI-H522 lung
NCI-H460 lung = system: NCI-H460 lung
CAKI-1 renal = system: CAKI-1 renal
OVCAR-3 ovarian = system: OVCAR-3 ovarian
NCI/ADR-RES ovarian = system: NCI/ADR-RES ovarian
RPMI-8226 leukemia = system: RPMI-8226 leukemia
TK-10 renal = system: TK-10 renal
SF-295 CNS = system: SF-295 CNS
HCC-2998 colon = system: HCC-2998 colon
HL-60(TB) leukemia = system: HL-60(TB) leukemia
UACC-257 melanoma = system: UACC-257 melanoma
HCT-116 colon = system: HCT-116 colon
U251 CNS = system: U251 CNS
ACHN renal = system: ACHN renal
T-47D breast = system: T-47D breast
SNB-75 CNS = system: SNB-75 CNS
M14 melanoma = system: M14 melanoma
MOLT-4 leukemia = system: MOLT-4 leukemia
SK-MEL-5 melanoma = system: SK-MEL-5 melanoma
EKVX NSCLC = system: EKVX NSCLC
SK-OV-3 ovarian = system: SK-OV-3 ovarian
MDA-MB-231 breast = system: MDA-MB-231 breast
KM12 colon = system: KM12 colon
PC-3 prostate = system: PC-3 prostate
BT-549 breast = system: BT-549 breast
786-0 renal = system: 786-0 renal
NCI-H226 lung = system: NCI-H226 lung
CCRF-CEM leukemia = system: CCRF-CEM leukemia
SK-MEL-28 melanoma = system: SK-MEL-28 melanoma
HT29 colon = system: HT29 colon
OVCAR-8 ovarian = system: OVCAR-8 ovarian
MCF7 breast = system: MCF7 breast
SF-539 CNS = system: SF-539 CNS
SW-620 colon = system: SW-620 colon
UACC-62 melanoma = system: UACC-62 melanoma
COLO 205 colon = system: COLO 205 colon
NCI-H23 lung = system: NCI-H23 lung
HS 578T breast = system: HS 578T breast
SR leukemia = system: SR leukemia
OVCAR-4 ovarian = system: OVCAR-4 ovarian
HCT-15 colon = system: HCT-15 colon
SNB-19 CNS = system: SNB-19 CNS
OVCAR-5 ovarian = system: OVCAR-5 ovarian
MDA-MB-435 = system: MDA-MB-435
A549 NSCLC = system: A549 NSCLC
K-562 leukemia = system: K-562 leukemia
DU-145 prostate = system: DU-145 prostate
LOX IMVI melanoma = system: LOX IMVI melanoma
IGROV1 ovarian = system: IGROV1 ovarian
SF-268 CNS = system: SF-268 CNS
HOP-62 NSCLC = system: HOP-62 NSCLC
SN12C renal = system: SN12C renal
SK-MEL-2 melanoma = system: SK-MEL-2 melanoma

`C=C1N(S(=O)(=O)c2ccc(C)cc2)C(=O)OCC12CCCC2` was tested, and the TGI (HOP-92 NSCLC) was over 100 µM, the TGI (A498 renal) was over 100 µM and the TGI (UO-31 renal) was over 100 µM. For the same compound, the TGI (MDA-N) was over 100 µM, the TGI (RXF 393 renal) was over 100 µM and the TGI (MALME-3M melanoma) was over 100 µM. It also gave a TGI (NCI-H522 lung) of over 100 µM, a TGI (NCI-H460 lung) of over 100 µM and a TGI (CAKI-1 renal) of over 100 µM. The TGI (OVCAR-3 ovarian) was over 100 µM, the TGI (NCI/ADR-RES ovarian) was over 100 µM and the TGI (RPMI-8226 leukemia) was over 100 µM. The TGI (TK-10 renal) was over 100 µM, the TGI (SF-295 CNS) was over 100 µM and the TGI (HCC-2998 colon) was over 100 µM. For the same compound, the TGI (HL-60(TB) leukemia) was over 100 µM, the TGI (UACC-257 melanoma) was over 100 µM and the TGI (HCT-116 colon) was over 100 µM. It also gave a TGI (U251 CNS) of over 100 µM, a TGI (ACHN renal) of over 100 µM and a TGI (T-47D breast) of over 100 µM. The TGI (SNB-75 CNS) was 62.6 µM, the TGI (M14 melanoma) was over 100 µM and the TGI (MOLT-4 leukemia) was over 100 µM. It also gave a TGI (SK-MEL-5 melanoma) of 94.6 µM, a TGI (EKVX NSCLC) of over 100 µM and a TGI (SK-OV-3 ovarian) of over 100 µM. The TGI (MDA-MB-231 breast) was over 100 µM, the TGI (KM12 colon) was over 100 µM and the TGI (PC-3 prostate) was over 100 µM. The TGI (BT-549 breast) was over 100 µM, the TGI (786-0 renal) was over 100 µM and the TGI (NCI-H226 lung) was over 100 µM. The TGI (CCRF-CEM leukemia) was over 100 µM, the TGI (SK-MEL-28 melanoma) was over 100 µM and the TGI (HT29 colon) was over 100 µM. For the same compound, the TGI (OVCAR-8 ovarian) was over 100 µM, the TGI (MCF7 breast) was over 100 µM and the TGI (SF-539 CNS) was over 100 µM. It also gave a TGI (SW-620 colon) of over 100 µM, a TGI (UACC-62 melanoma) of over 100 µM and a TGI (COLO 205 colon) of over 100 µM. For the same compound, the TGI (NCI-H23 lung) was over 100 µM, the TGI (HS 578T breast) was over 100 µM and the TGI (SR leukemia) was over 100 µM. For the same compound, the TGI (OVCAR-4 ovarian) was over 100 µM, the TGI (HCT-15 colon) was over 100 µM and the TGI (SNB-19 CNS) was over 100 µM. The TGI (OVCAR-5 ovarian) was over 100 µM, the TGI (MDA-MB-435) was over 100 µM and the TGI (A549 NSCLC) was over 100 µM. For the same compound, the TGI (K-562 leukemia) was over 100 µM, the TGI (DU-145 prostate) was over 100 µM and the TGI (LOX IMVI melanoma) was over 100 µM. For the same compound, the TGI (IGROV1 ovarian) was over 100 µM.
`CC(C)(C)OC(=O)N(O)[C@@H]1CC[C@H](n2cnc3c(N)ncnc32)C1` gave a TGI (SF-268 CNS) of over 100 µM, a TGI (HOP-92 NSCLC) of over 100 µM and a TGI (A498 renal) of over 100 µM. The TGI (UO-31 renal) was over 100 µM, the TGI (MDA-N) was over 100 µM and the TGI (RXF 393 renal) was over 100 µM. The TGI (MALME-3M melanoma) was over 100 µM, the TGI (NCI-H522 lung) was over 100 µM and the TGI (NCI-H460 lung) was over 100 µM. For the same compound, the TGI (OVCAR-3 ovarian) was over 100 µM, the TGI (NCI/ADR-RES ovarian) was over 100 µM and the TGI (RPMI-8226 leukemia) was over 100 µM. It also gave a TGI (TK-10 renal) of over 100 µM, a TGI (SF-295 CNS) of over 100 µM and a TGI (HCC-2998 colon) of over 100 µM. It also gave a TGI (UACC-257 melanoma) of over 100 µM, a TGI (HCT-116 colon) of over 100 µM and a TGI (U251 CNS) of over 100 µM. It also gave a TGI (ACHN renal) of over 100 µM, a TGI (T-47D breast) of over 100 µM and a TGI (SNB-75 CNS) of over 100 µM. It also gave a TGI (M14 melanoma) of over 100 µM, a TGI (MOLT-4 leukemia) of over 100 µM and a TGI (SK-MEL-5 melanoma) of over 100 µM. For the same compound, the TGI (EKVX NSCLC) was over 100 µM, the TGI (SK-OV-3 ovarian) was over 100 µM and the TGI (MDA-MB-231 breast) was over 100 µM. It also gave a TGI (KM12 colon) of over 100 µM, a TGI (PC-3 prostate) of over 100 µM and a TGI (BT-549 breast) of over 100 µM. For the same compound, the TGI (786-0 renal) was over 100 µM, the TGI (HOP-62 NSCLC) was over 100 µM and the TGI (NCI-H226 lung) was over 100 µM. The TGI (CCRF-CEM leukemia) was over 100 µM, the TGI (SK-MEL-28 melanoma) was over 100 µM and the TGI (HT29 colon) was over 100 µM. For the same compound, the TGI (OVCAR-8 ovarian) was over 100 µM, the TGI (MCF7 breast) was over 100 µM and the TGI (SF-539 CNS) was over 100 µM. It also gave a TGI (SW-620 colon) of over 100 µM, a TGI (UACC-62 melanoma) of over 100 µM and a TGI (SN12C renal) of over 100 µM. For the same compound, the TGI (COLO 205 colon) was over 100 µM, the TGI (NCI-H23 lung) was over 100 µM and the TGI (HS 578T breast) was over 100 µM. For the same compound, the TGI (SK-MEL-2 melanoma) was over 100 µM, the TGI (SR leukemia) was over 100 µM and the TGI (OVCAR-4 ovarian) was over 100 µM. For the same compound, the TGI (HCT-15 colon) was over 100 µM, the TGI (SNB-19 CNS) was over 100 µM and the TGI (OVCAR-5 ovarian) was over 100 µM. For the same compound, the TGI (MDA-MB-435) was over 100 µM, the TGI (A549 NSCLC) was over 100 µM and the TGI (K-562 leukemia) was over 100 µM. For the same compound, the TGI (DU-145 prostate) was over 100 µM, the TGI (LOX IMVI melanoma) was over 100 µM and the TGI (IGROV1 ovarian) was over 100 µM.
